Experimental data from ChEMBL document CHEMBL3352781, “Synthesis, antileishmanial and antitrypanosomal activities of N-substituted tetrahydro-β-carbolines” (Bioorg Med Chem Lett, 2014).
pIC50: −log10 of the molar value. The source made the active and inactive calls. The rule behind the calls is not given here.

Tests used:
[1] = system: Leishmania donovani; assay: Antimicrobial activity against promastigote stage of Leishmania donovani after 72 hrs by Alamar Blue assay; type: functional, organism-based; conditions: for pIC50: read-out: IC50
[2] = system: Vero; assay: Cytotoxicity against African green monkey Vero cells up to 25 ug/ml after 48 hrs by neutral red assay; type: cell-based; conditions: chlorocebus sabaeus
[3] = system: THP-1; assay: Cytotoxicity against human THP1 cells up to 10 ug/ml after 48 hrs by neutral red assay; type: cell-based; conditions: thp-1, 48 h
[4] = system: Leishmania donovani; assay: Antimicrobial activity against promastigote stage of Leishmania donovani infected in human THP1 cells after 72 hrs by Alamar Blue assay; type: functional, organism-based; conditions: for IC50: thp-1; for pIC50: read-out: IC50
[5] = system: LLC-PK1; assay: Cytotoxicity against pig LLC-PK1 cells up to 25 ug/ml after 48 hrs by neutral red assay; type: cell-based, Sus scrofa; conditions: llc-pk1, 48 h
[6] = system: Trypanosoma brucei; assay: Antimicrobial activity against trypamastigote stage of Trypanosoma brucei after 72 hrs by Alamar Blue assay; type: functional, organism-based; conditions: for pIC50: read-out: IC50
[7] = system: Leishmania donovani; assay: Antimicrobial activity against axenic amastigote stage of Leishmania donovani after 72 hrs by Alamar Blue assay; type: functional, organism-based; conditions: for pIC50: read-out: IC50
[8] = system: HepG2; assay: Cytotoxicity against human HepG2 cells up to 25 ug/ml after 48 hrs by neutral red assay; type: cell-based; conditions: hepg2, 48 h
[9] = Leishmania donovani, THP-1, 72 h

IC90 ([6]; Trypanosoma brucei, 72 h) [µM]	pIC50 ([6]; Trypanosoma brucei, 72 h)	IC50 [6]	IC90 [6]	SMILES	IC90 ([1]; Leishmania donovani, 72 h) [µM]	pIC50 ([1]; Leishmania donovani, 72 h)	Activity [2]	Activity [3]	IC90 ([4]; THP-1)	IC50 [4]	Activity [5]	IC90 ([7]; Leishmania donovani, 72 h) [µM]	pIC50 ([7]; Leishmania donovani, 72 h)	Activity [8]	IC50 [7]	IC90 [7]	IC50 [1]	IC90 [1]	IC90 [4, 9] [µM]	pIC50 [4, 9]
18.8	4.96	–	–	c1ccc2c(CN3CCc4c([nH]c5ccccc45)C3)c3ccccc3cc2c1	76	4.80	Non-toxic	Non-toxic	inactive	Not Active	Non-toxic	104	4.09	Non-toxic	–	–	–	–	–	–
–	–	Not Active	inactive	O=C(c1ccc(-c2cccc([N+](=O)[O-])c2)o1)N1CCc2c([nH]c3ccccc23)C1	–	4.18	Non-toxic	Non-toxic	inactive	Not Active	Non-toxic	–	–	Non-toxic	Not Active	inactive	–	–	–	–
–	–	Not Active	inactive	c1ccc2nc(CN3CCc4c([nH]c5ccccc45)C3)ccc2c1	–	–	–	–	inactive	Not Active	–	–	–	–	Not Active	inactive	Not Active	inactive	–	–
–	4.53	–	–	c1ccc2[nH]c(CN3CCc4c([nH]c5ccccc45)C3)nc2c1	–	3.93	Non-toxic	Non-toxic	inactive	Not Active	Non-toxic	–	–	Non-toxic	Not Active	inactive	–	–	–	–
–	–	Not Active	inactive	CN1CCN(C(=O)N2CCc3c([nH]c4ccccc34)C2)CC1	–	–	–	–	inactive	Not Active	–	–	–	–	Not Active	inactive	Not Active	inactive	–	–
–	–	Not Active	inactive	O=C(c1cnccn1)N1CCc2c([nH]c3ccccc23)C1	–	–	–	–	inactive	Not Active	–	–	–	–	Not Active	inactive	Not Active	inactive	–	–
–	4.58	–	–	c1ccc2c3c([nH]c2c1)CN(Cc1ccncc1)CC3	–	3.92	Non-toxic	Non-toxic	inactive	Not Active	Non-toxic	–	–	Non-toxic	Not Active	inactive	–	–	–	–
–	–	Not Active	inactive	O=C1NCCN1C(=O)N1CCc2c([nH]c3ccccc23)C1	–	–	–	–	inactive	Not Active	–	–	–	–	Not Active	inactive	Not Active	inactive	–	–
–	–	Not Active	inactive	O=C(c1cc2ccccc2o1)N1CCc2c([nH]c3ccccc23)C1	120	4.31	Non-toxic	Non-toxic	inactive	Not Active	Non-toxic	–	3.93	Non-toxic	–	–	–	–	–	–
–	–	Not Active	inactive	Cn1cc(C(=O)N2CCc3c([nH]c4ccccc34)C2)c2ccccc21	–	4.28	Non-toxic	Non-toxic	inactive	Not Active	Non-toxic	–	–	Non-toxic	Not Active	inactive	–	–	–	–
23.9	4.86	–	–	O=C(c1ccc(Br)o1)N1CCc2c([nH]c3ccccc23)C1	–	4.56	Non-toxic	Non-toxic	inactive	Not Active	Non-toxic	122	4.02	Non-toxic	–	–	–	–	–	–
–	–	Not Active	inactive	O=C(N1CCOCC1)N1CCc2c([nH]c3ccccc23)C1	–	–	–	–	inactive	Not Active	–	–	–	–	Not Active	inactive	Not Active	inactive	–	–
–	–	Not Active	inactive	Cc1ccsc1C(=O)N1CCc2c([nH]c3ccccc23)C1	–	4.59	Non-toxic	Non-toxic	inactive	Not Active	Non-toxic	–	–	Non-toxic	Not Active	inactive	–	–	–	–
68.2	4.55	–	–	NCCCC(N)(C(=O)O)C(F)F (stereo not drawn) [EFLORNITHINE]	–	–	–	–	–	–	–	–	–	–	–	–	–	–	–	–
–	–	Not Active	inactive	Cc1ncsc1C(=O)N1CCc2c([nH]c3ccccc23)C1	–	–	–	–	inactive	Not Active	–	–	–	–	Not Active	inactive	Not Active	inactive	–	–
14.5	5.05	–	–	Clc1ccc(CN2CCc3c([nH]c4ccccc34)C2)s1	25.6	5.04	Non-toxic	Non-toxic	inactive	Not Active	Non-toxic	–	–	Non-toxic	Not Active	inactive	–	–	–	–
17.6	4.99	–	–	c1ccc2cc(CN3CCc4c([nH]c5ccccc45)C3)ccc2c1	28.1	4.66	Non-toxic	Non-toxic	–	–	Non-toxic	–	4.06	Non-toxic	–	–	–	–	> 32	4.55
–	–	Not Active	inactive	C[C@@H]1[C@H](O)[C@@H](C)/C=C/C=C/C=C/C=C/C=C/C=C/C=C/[C@H](O[C@@H]2O[C@H](C)[C@@H](O)[C@H](N)[C@@H]2O)C[C@@H]2O[C@](O)(C[C@@H](O)C[C@@H](O)[C@H](O)CC[C@@H](O)C[C@@H](O)CC(=O)O[C@H]1C)C[C@H](O)[C@H]2C(=O)O [AMPHOTERICIN B]	0.4	6.52	–	–	–	–	–	0.4	6.52	–	–	–	–	–	0.5	–
–	–	Not Active	inactive	O=C(c1ccc2ccccc2n1)N1CCc2c([nH]c3ccccc23)C1	–	–	–	–	inactive	Not Active	–	–	–	–	Not Active	inactive	Not Active	inactive	–	–
0.007	8.39	–	–	N=C(N)c1ccc(OCCCCCOc2ccc(C(=N)N)cc2)cc1 [PENTAMIDINE]	6.1	5.32	–	–	–	–	–	> 29.4	< 4.53	–	–	–	–	–	3.1	5.70
